Reference: paper PMC12042267, “Expanding the Family of Monosubstituted 15-Membered Pyridine-Based Macrocyclic Ligands for Mn(II) Complexation in the Context of MRI” (Inorganic Chemistry, 2025)

How the values were obtained:
[1] = Water solubility of complex samples; type: physicochemical; conditions: at the concentrations required for the measurements
Excerpt: MnL2 and MnL3 complex samples for kinetic and relaxometric studies have been prepared by mixing MnCl2 and L2 or L3 solutions of known concentrations in a 1:1.05 ratio and by adjusting the pH to 7.4. Mn(II) concentration in each sample was verified by bulk magnetic susceptibility measurements.

[2] = Dissociation kinetics of Mn(II) complexes, transmetalation with Zn(II) (T2 relaxation); type: physicochemical
Description: The transmetalation reaction of MnL2 and MnL3 (1.4 mM) was monitored in the presence of 10, 20, 30, and 40 mol equiv of Zn(II) ions, by measuring water proton T2 relaxation times (60 MHz) as a function of time at 25 °C and in 0.15 M NaCl, in the pH range 4.9–6.0 (4.9, 5.0, 5.2, 5.5, and 6.0). To control pH, 50 mM N-methyl-piperazine (pH 4.9–5.5) or 50 mM MES (2-(4-morpholino)ethane-sulfonic acid) buffer (pH 5.7–6.0) was used. Transmetalation of MnL2 (0.3 mM) was also investigated in the presence of 10, 20, 30, and 40 mol equiv of Cu(II) ions, by monitoring the UV–vis absorbance at 274.0 nm as a function of time at 25 °C and in 0.15 M NaCl, in the pH range 4.7–5.0 (in 75 mM 1,4-dimethyl piperazine (DMP) buffer). No oxidation of the samples was observed. The program OriginPro 9 was used for the fitting of experimental data.
The dissociation kinetics was followed through monitoring Mn(II) release by water proton T2 measurements, at pH […], in the presence of 10- to 40-fold excess of Zn(II) and through UV–vis measurements in the presence of 10- to 40-fold excess of Cu(II) at pH 4.7–5.0 (only for MnL2). The observed dissociation rate constants, kobs, increase with increasing H^+ ion concentration (Figures 4, left and S20). They remain independent of Zn(II) concentration (Figures S18 and S19), but do show dependence on Cu(II) concentration (Figure S21).
In excess of the exchanging metal ion, the reaction is of pseudo-first order, and the rate is proportional to the total MnL2 or MnL3 concentration (eq 1), where kobs is the pseudo-first-order rate constant. [drawing 4] 1 In general, different dissociation pathways can coexist, implying the participation of protons and/or the exchanging metal ion,[47] as illustrated in Figure 5.
Based on this scheme, the overall rate for either Zn(II) or Cu(II) transmetalation can be given by eq 2, where M = Zn^2+ or Cu^2+ (for clarity, charges of the complexes are omitted). [drawing 5] 2 Here, the first and second terms correspond to the spontaneous dissociation of the nonprotonated and the monoprotonated complexes, respectively, the third term describes the proton-assisted dissociation of the monoprotonated complex, and the last two terms refer to the spontaneous dissociation of the dinuclear complex and metal-assisted dissociation of the monoprotonated MnL2 or MnL3 complex. [MnL]tot describes the total concentration of Mn(II) chelates ([MnL]tot = [MnL] + [MnHL] + [ZnLMn]). Since no obvious Zn(II) dependence (for any of the two systems) was observed, only the spontaneous and proton-assisted dissociation pathways were taken into consideration. Consequently, the observed rate constants can be expressed as in eq 3 with k0 = kMnL, k1 = kMnHL·KMnHL, and k2 = ^HkMnHL·KMnHL. [drawing 6] 3 The kobs rate constants were fitted to eq 3, and the calculated parameters are listed in Table 5 for the Zn(II) exchange. During the fitting procedure, KMnHL was fixed to the value obtained from the pH-potentiometric titrations.

[3] = fixed during the fitting procedure ref 28; cited from earlier work
[4] = Cyclic voltammetry of Mn(II) complexes in aqueous solution; type: physicochemical; conditions: aqueous 0.15 M KCl; for ΔE (peak separation): 100 mV s^–1; for Eox (oxidation peak) / Ered (reduction peak): 100 mV s^–1 scan rate; for Eox (oxidation peak) / Ered (reduction peak) / E1/2: vs Ag/AgCl
Description: All solvents (VWR International, Penta) and chemicals were purchased from commercial sources (Acros Organics, Merck) and used as received. 2-(Chloromethyl)pyridine hydrochloride and 2-(chloromethyl)benzimidazole were prepared according to the previously described procedures.[31],[32] The parent ligand 15-pyN3O2 was synthesized as previously described in the literature.[28],[33] Mass spectra were collected using an LCQ Fleet mass spectrometer (Thermo Scientific, Waltham, MA) equipped with an electrospray ion source and a three-dimensional (3D) ion-trap detector in the positive/negative mode (see SI, Figures S1 and S2). ^1H and ^13C NMR spectra were obtained using a 400-MR NMR spectrometer (Varian, Palo, Alto, CA) at 25 °C. The multiplicity of the signals is indicated as follows: s, singlet; d, doublet; t, triplet; m, multiplet; and bs, broad singlet. Deuterated solvent chloroform-d (99.9% of D) was purchased from Sigma-Aldrich and used as received. The atom numbering schemes used for the interpretation of NMR data are shown in Scheme 2. The carbon and hydrogen atoms were assigned according to the spectra obtained from the two-dimensional correlation experiments ^1H–^1H gs-COSY, ^1H–^13C gs-HMQC, and ^1H–^13C gs-HMBC (see SI, Figures S3–S10). Cyclic voltammetry was performed on a CHI600C electrochemical analyzer (CH Instruments, Inc., Austin, TX). IR spectra were measured on a Jasco FT/IR-4700 spectrometer (Jasco, Easton, MD) using the ATR technique on a diamond plate in the spectral range 4000–400 cm^–1 (see SI Figure S11). A conventional electrochemical three-electrode-type cell with a glassy carbon working electrode, a platinum wire auxiliary electrode, and either Ag/Ag^+ reference electrode (0.01 M AgNO3 in 0.1 M tetrabutylammonium perchlorate (TBAP) in CH3CN) or Ag/AgCl reference electrode filled with 3 M KCl solution was used during the measurements with the scan rate of 100 mV s^–1. The measurements were performed in an argon atmosphere either in 0.1 M TBAP solution in CH3CN or in 0.15 M aqueous solution of KCl as a supporting electrolyte with a scan rate of 100 mV s^–1 and at 1.5 mM concentration of the complexes. The internal ferrocene/ferrocenium standard (E1/2 = 0.459 V vs Ag/Ag^+ electrode, ΔE = 77 mV) was employed for measurements in CH3CN.
Thus, we carried out CV experiments on an aqueous solution of the Mn(II) complexes in 0.15 M KCl. […] The cyclic voltammogram of MnL3 is similar, showing an oxidation peak at Eox = +1004 mV and a reduction peak at Ered = 782 mV (E1/2 = 893 mV vs Ag/AgCl, ΔE = 222 mV) (Figure S23). The large separation between the oxidation and reduction peaks (ΔE) is characteristic of a quasi-reversible system. The irreversibility of the Mn(II)/Mn(III) redox process is quite common due to the lack of ligand-field stabilization for the high-spin d^5 configuration of Mn(II), with a consequent large inner-sphere contribution to electron transfer.[57] Even larger separation between the oxidation and reduction peaks was observed when the complexes were measured in acetonitrile (Figures S24 and S25 in SI).

[5] = Zn(II) transmetalation, 25 °C, 0.15 M NaCl, pH 4.9–6.0

Row | SMILES | water solubility [1] | dissociation half-life t1/2 ([2]; Mn(II) complex, t1/2 = ln 2/kobs calculated for pH 7.4, Zn(II)) [min] | k0 (spontaneous dissociation of the nonprotonated complex) [2, 5] | k2 (proton-assisted dissociation of the monoprotonated complex) [2, 5] | AO/ℏ (scalar coupling constant) [3] | ΔE (peak separation) [4] [mV] | Eox (oxidation peak) [4] | Ered (reduction peak) [4] | E1/2 [4] [mV]
1 | O.[Mn+2].c1ccc(CN2CCOCCOCCNCc3cccc(n3)C2)nc1 [MnL2] | water-soluble | 10.4 | (1.1 ± 0.3) × 10^–3 s^–1 | (4.5 ± 0.8) × 10^7 M^–2 s^–1 | 38.6 ^e 10^6 rad s^–1 | 144 | +994 mV | +850 mV | 922
2 | O.[Mn+2].c1cc2nc(c1)CN(Cc1nc3ccccc3[nH]1)CCOCCOCCNC2 [MnL3] | water-soluble |  | (1.9 ± 0.3) × 10^–3 s^–1 |  | 38.6 ^e 10^6 rad s^–1 | 222 | +1004 mV | 782 mV | 893
